Laboratory results reported in patent US4581172A, “Substituted pyrimido[6,1-a]isoquinolin-4-ones,pyrimido[6,1-a]benzozepin-4-ones and pyrimido[6,1-a]benzodiazepin-4-ones useful for prevention of thromboses and treating hypertension” (Hoffmann-La Roche Inc., priority 1983, dated 1986).

Assays:
[1] = system: Human platelet-rich plasma; experiment: Inhibition of collagen-initiated platelet aggregation (aggregometer method); type: cell-based; settings: 10 min, human citrate plasma, 10 minutes at 37° C., aggregation initiated by collagen fibrils, hydrochlorides of the products tested, read-out: EC50 (maximum aggregation velocity)
Procedure: The maximum aggregation velocity was taken as the test parameter and the effective concentration (EC50) was ascertained from dosage-activity curves. Human platelet-rich plasma was obtained by centrifugation from citrated venous blood. The experiments were carried out with suspensions of the test substances in 0.9% sodium chloride. 0.18 ml of citrate plasma was treated with a 10 μl suspension of the test compounds and the mixture was incubated at 37° C. for 10 minutes, whereupon the aggregation was initiated by the addition of 10 μl of a suspension of collagen fibrils. The following EC50 values (in μM) were ascertained for the hydrochlorides of the products of certain Examples hereinafter: […]

[2] = Acute toxicity (LD50) p.o. in mice; settings: mouse, in vivo, po, hydrochloride

Structure (SMILES)	EC50 [1] [µM]	LD50 [2] [mg/kg]
COc1cc2c(cc1OC)-c1cc(Nc3c(C)cc(C)cc3C)nc(=O)n1C(C)C2 (centres unmarked) [Example 2(a), 6,7-dihydro-9,10-dimethoxy-2-mesitylamino-6-methyl-4H-pyrimido[6,1-a]isoquinolin-4-one]	0.11	–
COc1cc2c(cc1OC)-c1cc(=Nc3c(C)cc(C)cc3C)n(C)c(=O)n1C(C)C2 (centres unmarked) [4(a), 9,10-dimethoxy-3,6-dimethyl-2-mesitylimino-2,3,6,7-tetrahydro-4H-pyrimido[6,1-a]isoquinolin-4-one]	0.1	–
COc1cc2c(cc1OC)C(C)Cn1c-2cc(=Nc2ccccc2C)n(C)c1=O (centres unmarked) [6a) 2.]	–	2500
COc1cc2c(cc1OC)-c1cc(=Nc3c(C)cc(C)cc3C)n(C)c(=O)n1CCC2 [5(a), 10,11-dimethoxy-2-mesitylimino-3-methyl-2,3,7,8-tetrahydro-4H,6H-pyrimido[6,1-a]benzazepin-4-one]	0.12	–
COc1cc2c(cc1OC)C(C)Cn1c-2cc(=Nc2c(C)cc(C)cc2C)n(C)c1=O (centres unmarked) [Example 3, 9,10-dimethoxy-3,7-dimethyl-2-mesitylimino-2,3,6,7-tetrahydro-4H-pyrimido[6,1-a]isoquinolin-4-one]	0.6	–
